Laboratory results as given in patent US20120252721A1 (priority 2011, published 2012).

Experiments:
[1] = system: HCV genotype 1b Con1 strain subgenomic luciferase replicon (Zluc); experiment: Luciferase replicon assay, genotype 1b; type: cell-based; conditions: Hepatitis C virus
Description: (§1) The HCV luciferase replicon assay measures the ability of a test compound to inhibit HCV replication in cell culture after 3 days of treatment in a human hepatoma cell line (Huh-7) bearing an HCV replicon containing a luciferase-neomycin phosphotransferase fusion gene. The inhibition of HCV replication was measured by quantification of luciferase protein expression. Briefly, Huh-7 cells containing either the HCV genotype 1a H77 strain or genotype 1b Con1 strain subgenomic luciferase replicon (H1a-luc or Zluc, respectively) were grown in DMEM containing glucose, L-glutamine and sodium pyruvate, 10% fetal bovine serum (FBS), 100 IU/mL penicillin, 100 μg/mL streptomycin, 2 mM GlutaMAX, non-essential amino acids and 0.25 (H1a-luc) or 0.5 (Zluc) mg/mL G418. GlutaMAX was obtained from Invitrogen, Corp.; all other media reagents were obtained from Mediatech, Inc. For dose-response testing, the cells were seeded in 96-well plates at 1×10^4 (H1a-luc) or 7.5×10^3 (Zluc) cells/well in a volume of 50 μL, and incubated at 37° C./5% CO2. Three hours after plating, 50 μL of ten 5-fold serial dilutions of compound were added, and cell cultures were incubated at 37° C./5% CO2 for 72 hours. In all cases, Huh-7 cells lacking the HCV replicon served as negative control. To assess luciferase expression, the media/compound was removed from the plates and ONE-glo Luciferase assay reagent (Promega) was added to each well. The assay plates were shaken for 3 minutes at room temperature and luciferase activity for each well was measured with a 1 sec read time on the Victor^3V multilabel counter using a 700 nm cut-off filter (Perkin Elmer). EC50 values were calculated from dose response curves from the resulting best-fit equations determined by Microsoft Excel and XLfit 4.1 software.

[2] = system: HCV genotype 2a; experiment: Genotype 2a assay (NS5A-intergenotypic luciferase replicon / genotype 2a infectious virus assay); type: cell-based; conditions: Hepatitis C virus, read-out: EC50 2a
From the text: (§2) The nucleotide sequences of the NS5A region of genotype 2a (GenBank Accession # AB047639), genotype 3a (GenBank Accession #D17763), and genotype 4a (GenBank Accession# DQ418788) were synthesized by an outside vendor. The NS5A region of each of these genotypes included the first 11 amino acids of the protease recognition sequence of genotype 1b, as well as the last 10 amino acids of genotype 1b. The NS5A gene cassettes were excised with site specific restriction endonucleases and ligated into a ZS11-luciferase genotype 1b backbone (backbone contains the genotype 1b NS3 protease, NS4a, NS4b, and NS5b coding regions) with similarly cut restriction enzyme sites. Thus, the newly constructed plasmid contains a genotype 2a-, 3a- or 4a-specific NS5A gene within the 1b-replicon.
(§3) These new intergenotypic plasmids were used to establish stable cell lines. RNA was generated from the NS5A intergenotypic plasmids and used in conjunction with a lipofectin reagent to transfect a cured Huh7 cell line. Transfected cells were selected for with G418. After selection has occurred the stable cell lines were propagated, tested for luciferase activity, and RT-PCR with genotype specific primers (either 1a, 2a, 3a, or 4a). Stable cell lines containing the intergenotypic replicon were then fully sequenced and analyzed for proper expression of NS3, NS5A and NS5B proteins.
(§4) Drug titration analysis was performed using the luciferase replicon assay described herein.
The genotype 2a infectious virus assay measures the ability of a test compound to inhibit HCV replication in cell culture after 5 days of treatment at the time of HCV genotype 2a virus infection of a permissive human hepatoma cell line (HPC cells). The inhibition of HCV replication was measured by quantification of HCV core protein expression by an enzyme-linked immunosorbent assay (ELISA). Briefly, HPC cells were grown in DMEM containing glucose, L-glutamine and sodium pyruvate, 10% FBS, 100 IU/mL penicillin, 100 μg/mL streptomycin, 2 mM GlutaMAX, and non-essential amino acids. GlutaMAX was obtained from Invitrogen, Corp.; all other media reagents were obtained from Mediatech, Inc. For dose-response testing, ninety-six-well plates were seeded with HPC cells at a density of 2.5×10^3 cells/well in a volume of 50 μL, and incubated at 37° C./5% CO2. Three hours after plating, 50 μL of ten 5-fold serial dilutions of compound and 100 μL of genotype 2a virus were added, and cell cultures were incubated at 37° C./5% CO2. In all cases, mock infected HPC cells served as negative control. At 16 hours post treatment and infection, the virus inoculum was removed by aspiration. The cultures were treated at the same final concentrations of drug diluted in media and incubated for 4 additional days at 37° C./5% CO2. Subsequently, the core ELISA was performed as follows. The plates were fixed for 90 seconds with acetone/methanol (1:1, v/v), washed three times with KPL wash solution (KPL, Inc.), blocked for 1 hr at room temperature with TNE buffer containing 10% FBS and then incubated for 2 hr at 37° C. with the anti-HCV core mouse monoclonal antibody (Thermo Scientific) diluted in the same buffer. After washing three times with KPL wash solution, the cells were incubated for 1 hr at 37° C. with an anti-mouse immunoglobulin G-peroxidase conjugate in TNE/10% FBS. After washing as described above, the reaction was developed with O-phenylenediamine (Invitrogen). The reaction was stopped after 30 min with 2 NH2SO4, and absorbance was read at 490 nm in a Victor^3V 1420 multilabel counter (Perkin Elmer) and EC50 concentrations were determined using Microsoft Excel and XLfit 4.1 software.
The HCV luciferase replicon assay measures the ability of a test compound to inhibit HCV replication in cell culture after 3 days of treatment in a human hepatoma cell line (Huh-7) bearing an HCV replicon containing a luciferase-neomycin phosphotransferase fusion gene. […]

[3] = system: HCV genotype 3a NS5A within the 1b-replicon; experiment: Luciferase replicon assay, NS5A-intergenotypic stable cell line genotype 3a; type: cell-based; conditions: Hepatitis C virus, read-out: EC50 3a
From the text: as §2, §3, §4, §1

[4] = system: HCV genotype 4a NS5A within the 1b-replicon; experiment: Luciferase replicon assay, NS5A-intergenotypic stable cell line genotype 4a; type: cell-based; conditions: Hepatitis C virus, read-out: EC50 4a
From the text: as §2, §3, §4, §1

[5] = system: HCV genotype 1a H77 strain subgenomic luciferase replicon (H1a-luc); experiment: Luciferase replicon assay, genotype 1a; type: cell-based; conditions: Hepatitis C virus; genotype 1a; read-out: EC50 1a
Description: as §4, §1

[6] = in vitro; type: cell-based, human; conditions: human; Table 1B, cellular viability
Description: (§5) For cytotoxicity evaluation, HPC cells were treated with compounds as described above in the absence of the genotype 2a virus and cellular viability was monitored using the Cell Titer 96 AQueous One Solution Cell Proliferation Assay (Promega). Plates were then read at 490 nm in a Victor^3V 1420 multilabel counter (Perkin Elmer) and CC50 concentrations were determined using Microsoft Excel and XLfit 4.1 software.
as §5, with “H1a-luc or Zluc” for “HPC”, “above” for “above in the absence of the genotype 2a virus”

[7] = system: HCV; conditions: combination therapy (Poynard et al.); cited from earlier work

Row | Compound | EC50 [1] | EC50 [2] | EC50 [3] | EC50 [4] | EC50 [5] | CC50 [6] | sustained efficacy, share of patients [7]
1 | COC(=O)NC(C(=O)N1CCCC1c1ncc(-c2cc3sc(-c4ccc5[nH]c(C6CCCN6C(=O)C(NC(=O)OC)C(C)C)nc5c4)cc3s2)[nH]1)C(C)C (stereo in doubt) [Compound A176, ((S)-1-{(S)-2-[5-(5-{(S)-2-[1-((S)-2-methoxycarbonylamino-3-methyl-butyryl)-pyrrolidin-2-yl]-3H-benzoimidazol-5-yl}-thieno[3,2-b]thiophen-2-yl)-1H-imidazol-2-yl]-pyrrolidine-1-carbonyl}-2-methyl-propyl)-carbamic acid methyl ester] | < 0.1 nM | 0.1 to 1 nM | 0.1 to 1 nM | 0.1 to 1 nM | 0.1 to 1 nM | 10000 to 75000 nM | –
2 | COC(=O)N[C@H](C(=O)N1CCC[C@H]1c1ncc(-c2ccc(-c3cc4sc(-c5ccc6[nH]c([C@@H]7CCCN7C(=O)[C@H](NC(=O)OC)c7ccccc7)nc6c5)cc4s3)cc2)[nH]1)C(C)C [Compound A194, [(S)-1-((S)-2-{4-[4-(5-{(S)-2-[1-((R)-2-methoxycarbonylamino-2-phenyl-acetyl)-pyrrolidin-2-yl]-3H-benzoimidazol-5-yl}-thieno[3,2-b]thiophen-2-yl)-phenyl]-1H-imidazol-2-yl}-pyrrolidine-1-carbonyl)-2-methyl-propyl]-carbamic acid methyl ester] | < 0.1 nM | 1 to 10 nM | 0.1 to 1 nM | < 0.1 nM | 0.1 to 1 nM | > 75000 nM | –
3 | COC(=O)N[C@H](C(=O)N1CCC[C@H]1c1nc2ccc(-c3csc4c(C#Cc5cnc([C@@H]6CCCN6C(=O)[C@H](NC(=O)OC)c6ccccc6)[nH]5)csc34)cc2[nH]1)C(C)C [Compound A206] | < 0.1 nM | < 0.1 nM | < 0.1 nM | < 0.1 nM | – | > 75000 nM | –
4 | COC(=O)N[C@@H](C(=O)N1CCCC1c1nc2ccc(-c3csc4c(-c5ccc6[nH]c(C7CCCN7C(=O)[C@H](NC(=O)OC)C(C)C)nc6c5)csc34)cc2[nH]1)c1ccccc1 (stereo partly drawn) [Compound A208] | < 0.1 nM | < 0.1 nM | < 0.1 nM | < 0.1 nM | < 0.1 nM | > 75000 nM | –
5 | alpha-interferon and ribavirin | – | – | – | – | – | – | about 40%
